Where “and” joins values, the source holds several entries; their conditions need not be identical. Equal values may be shown once. One block for each compound: values may come before it.
Experiment: solvent given as SMILES

Compound: F[B-]1(F)OC(c2ccc(C(F)(F)F)cc2)=Cc2cc(Cl)nc[n+]21
emission maximum (in C1CCOC1): 428 nm
emission maximum (in CC#N): 425 nm
emission maximum (in CCCCCC): 421 nm
emission maximum (in Cc1ccccc1): 434 nm
emission maximum (in ClC(Cl)Cl): 426 nm
emission maximum (in ClCCl): 426 nm

Compound: N#Cc1nc2c3ccc(N(c4ccccc4)c4ccccc4)cc3c3cc(N(c4ccccc4)c4ccccc4)ccc3c2nc1C#N
emission maximum (in C1COCCO1): 586.91 nm
emission maximum (in CCCCCC): 515.27 nm
emission maximum (in Cc1ccccc1): 566 nm
emission maximum (in ClC(Cl)Cl): 639.45 nm
emission maximum (in O=P(c1ccccc1)(c1ccccc1)c1cccc(-c2cc(-n3c4ccccc4c4ccccc43)cc(-n3c4ccccc4c4ccccc43)c2)n1): 606 nm

Compound: COc1ccc(-c2cc(-c3ccccc3)nn2C)cc1
emission maximum (in ClCCl): 333 nm

Compound: CC(C)(C)NC(=O)c1ccc(Br)c2ccc3c4ccc(F)cc4c4cc(F)ccc4c3c12
emission maximum (in ClCCl): 394 nm

Compound: CC1(C)c2ccccc2N(c2ccc3c(c2)C(c2ccccc2)(c2ccccc2)c2cc(N4c5ccccc5C(C)(C)c5ccccc54)ccc2S3(=O)=O)c2ccccc21
emission maximum (in Cc1ccccc1): 448 nm

Compound: CCCCCCc1ccc(-n2c3c4cccc(OC)c4nc(-c4ccc(OC)cc4)c3c3c2c2c(-c4ccc(OC)cc4)nc4c(OC)cccc4c2n3-c2ccc(CCCCCC)cc2)cc1
emission maximum (in ClC(Cl)Cl): 453 nm

Compound: c1ccc2c(c1)CCc1ccccc1N2c1c2ccccc2cc2ccccc12
emission maximum (in Cc1ccccc1): 507 nm

Compound: c1ccc(-c2nc(-c3ccc(N4c5ccccc5Oc5ccccc54)cc3)nn2-c2ccc(N3c4ccccc4Oc4ccccc43)cc2)nc1
emission maximum (in ClCCl): 490 nm

Compound: CCN(CC)c1ccc2c(c1)oc(=O)c1c(C)nc3c(cnn3-c3ccccc3)c12
emission maximum (in ClCCl): 439 nm

Compound: CCCCCCOc1cc(/C=C/c2cc(OCCCCCC)c(/C=C/c3cc(OCCCCCC)c(C=O)cc3OCCCCCC)cc2OCCCCCC)c(OCCCCCC)cc1C=O
emission maximum (in ClCCl): 521 nm

Compound: CCCCCCc1ccsc1-c1cc2c3cc(-c4sccc4CCCCCC)c4nc(C(F)(F)C(F)(F)C(F)(F)F)nc5c(-c6sccc6CCCCCC)cc(c6cc(-c7sccc7CCCCCC)c7nc(C(F)(F)C(F)(F)C(F)(F)F)nc1c7c26)c3c45
emission maximum (in C1CCOC1): 627 nm

Compound: CCCCC1(CCCC)c2cc(C#Cc3ccc(C=C4c5ccccc5C=Cc5ccccc54)cc3)ccc2-c2ccc(C#Cc3ccc(C=C4c5ccccc5C=Cc5ccccc54)cc3)cc21
emission maximum (in C1CCOC1): 405 nm

Compound: c1ccc(-c2cc(-c3ccccc3)[o+]c(-c3ccccc3)c2)cc1
emission maximum (in CC#N): 465 nm
emission maximum (in ClCCCl): 463 nm

Compound: CCN(CC)c1ccc2cc(-c3csc(NC(C)=O)c3C#N)c(=O)oc2c1
emission maximum (in C1CCOC1): 457 nm
emission maximum (in CO): 477 nm
emission maximum (in CS(C)=O): 479 nm
emission maximum (in Cc1ccccc1): 448 nm
emission maximum (in ClCCl): 463 nm

Compound: CCC1=C(C)C(=O)n2c1cc1[nH]c(C(=O)OC(C)(C)C)c(C)c1c2=O
emission maximum (in C1CCCCC1): 443 nm
emission maximum (in CO): 505 nm
emission maximum (in CS(C)=O): 483 nm
emission maximum (in ClC(Cl)Cl): 453 nm
emission maximum (in c1ccccc1): 443 nm

Compound: c1ccc(-n2c(-c3ccccc3-n3c4ccccc4c4ccccc43)nc3ccccc32)cc1
emission maximum (in C1CCOC1): 396 nm

Compound: COc1ccc(C(=O)/C=C/c2ccc(N(C)C)cc2)cc1OC
emission maximum (in C1CCOC1): 500 nm
emission maximum (in CC#N): 525 nm
emission maximum (in CC(=O)O): 513 nm
emission maximum (in CC(C)=O): 511 nm
emission maximum (in CCO): 533 nm
emission maximum (in CN(C)C=O): 523 nm
emission maximum (in CO): 535 nm
emission maximum (in Cc1ccccc1): 468 nm
emission maximum (in ClC(Cl)Cl): 507 nm
emission maximum (in c1ccccc1): 470 nm

Compound: Cc1cc2nc3c(=O)[nH]c(=O)n(C)c3nc2cc1C
emission maximum (in CC#N): 437 nm

Compound: CN1C(=CC2=C([O-])C(=CC3=[N+](C)c4ccccc4C3(C)C)C2=O)C(C)(C)c2ccccc21
emission maximum (in ClC(Cl)Cl): 643 nm

Compound: Cc1cc(C)c(B(c2cc3ccc4cccc5ccc(c2)c3c45)c2c(C)cc(C)cc2C)c(C)c1
emission maximum (in Cc1ccccc1): 434 nm

Compound: Cc1ccccc1C
emission maximum (in C1CCCCC1): 291.38 nm

Compound: O=c1c2ccccc2n2c3ccccc3c(=O)c3cc(-c4ccccc4)cc1c32
emission maximum (in CC#N): 475 nm
emission maximum (in CCCCCC): 447 nm
emission maximum (in CCCCOCCCC): 454 nm
emission maximum (in CCOC(C)=O): 464 nm
emission maximum (in CN(C)C=O): 477 nm
emission maximum (in Cc1ccccc1): 464.98 nm
emission maximum (in c1cc(-c2cccc(-n3c4ccccc4c4ccccc43)c2)cc(-n2c3ccccc3c3ccccc32)c1): 472 nm
emission maximum (in c1cc(-n2c3ccccc3c3ccccc32)cc(-n2c3ccccc3c3ccccc32)c1): 472 nm

Compound: CCOc1ccc(/C=C/C=C/C=C/c2ccc([N+](=O)[O-])cc2)cc1
emission maximum (in CC1CCCCC1): 488 nm
emission maximum (in CC#N): 740 nm
emission maximum (in Cc1ccccc1): 541 nm
emission maximum (in ClCCl): 694 nm

Compound: CCOCCOCCOC(=O)/C=C/C1=CC2=C(c3c(C)cc(C)cc3C)c3cccn3[B-](F)(F)[N+]2=C1
emission maximum (in ClCCl): 567 nm

Compound: CC1(C)c2ccccc2N(c2ccc(-c3cccc(C#N)c3)cc2)c2ccccc21
emission maximum (in Cc1ccccc1): 431 nm
emission maximum (in N#Cc1ccc2c(c1)c1ccccc1n2-c1cccc(-n2c3ccccc3c3ccccc32)c1): 436 nm

Compound: CCCCCCCCn1c2ccccc2c(=O)c2ccccc21
emission maximum (in CS(C)=O): 414 nm

Further lines, results first:

emission maximum (in CN(C)C=O): 401 nm
Compound: Cc1cc(-c2ccc(-c3nc4ccccc4[nH]3)cc2)c(C)cc1-c1ccc(-c2nc3ccccc3[nH]2)cc1

emission maximum (in CS(C)=O): 450 nm
Compound: Cc1ccc(C2C(C#N)=C(N)n3c(=O)c4ccccc4c(=O)n32)cc1 (stereo unspecified)

emission maximum (in O): 385 nm
Compound: O=c1ccc2ccccc2o1

emission maximum (in C1CCOC1): 397 nm
Compound: CCC1(CC)c2ccccc2-c2c1c1c(c3c2C(CC)(CC)c2cc(/C=C/c4cccs4)ccc2-3)C(CC)(CC)c2cc(/C=C/c3cccs3)ccc2-1

emission maximum (in C1CCCCC1): 628 nm
emission maximum (in ClC(Cl)Cl): 680 nm
Compound: Clc1cc(Cl)c([C](c2c(Cl)cc(Cl)cc2Cl)c2c(Cl)cc(-n3c4ccccc4c4ccccc43)cc2Cl)c(Cl)c1

emission maximum (in ClCCl): 376 nm
Compound: O=P(c1ccccc1)(c1ccccc1)c1cccc(-c2nc3ccccc3n2-c2cccc(P(=O)(c3ccccc3)c3ccccc3)c2)c1

emission maximum (in C1CCOC1): 466 nm
Compound: COc1cc2c(cc1-c1ccc(Cl)cc1)Cc1c3c(c4c(c1-2)-c1cc(OC)c(-c2ccc(Cl)cc2)cc1C4)C(=O)N(CCC(C)C)C3=O

emission maximum (in CS(C)=O): 416 nm
Compound: COc1cc2sc3cc(OC)c(F)cc3c(=O)c2cc1F

emission maximum (in CC#N): 768 nm
Compound: CC1=CC(/C=C/c2ccc(N(C)C)cc2)=[N+]2C1=C(c1ccc(I)cc1)c1c(C)cc(/C=C/c3ccc(N(C)C)cc3)n1[B-]2(F)F

emission maximum (in CC#N): 416.5 nm and 440 nm
Compound: COc1ccc(-c2nc(-c3ccc(-c4nc(-c5ccc(OC)cc5)c(-c5ccc(OC)cc5)[nH]4)cc3)[nH]c2-c2ccc(OC)cc2)cc1

emission maximum (in CCO): 464 nm
emission maximum (in ClC(Cl)Cl): 450 nm
Compound: COc1ccc2c(-c3nc(-c4cccc(C)c4)no3)cc(=O)oc2c1

emission maximum (in CN(C)C=O): 416 nm
Compound: Cc1nc2cccc(-c3nc4ccccc4s3)c2c(=O)[nH]1

emission maximum (in ClC(Cl)Cl): 640 nm
Compound: CCCCCCCCCCCCOc1cc2c3c(ccc4c5c(SCCCCCCCCCCCC)cc6c7c(ccc(c1c34)c75)C(=O)N(C1CCCCC1)C6=O)C(=O)N(C1CCCCC1)C2=O

emission maximum (in C1CCCCC1): 436 nm
emission maximum (in C1CCOC1): 528 nm
emission maximum (in CC#N): 571 nm
emission maximum (in CS(C)=O): 575 nm
emission maximum (in ClCCl): 530 nm
Compound: CN(C)c1ccc(-c2nc(-c3ccc(N(C)C)cc3)c3ccccc3n2)cc1

emission maximum (in ClC(Cl)Cl): 660 nm
Compound: CCCCCCCCCCCCOc1cc2c3cc(OCCCCCCCCCCCC)c(OCCCCCCCCCCCC)cc3c3c(cc(OCCCCCCCCCCCC)c4nc5cc(C#Cc6ccc(OCCC(C)CCCC(C)C)cc6)c(C#Cc6ccc(OCCC(C)CCCC(C)C)cc6)cc5nc43)c2cc1OCCCCCCCCCCCC (stereo unspecified)

emission maximum (in CCO): 447 nm
Compound: COc1ccc(C(=O)OCc2ccc3c4cccc5cccc(c6cccc2c63)c54)cc1

emission maximum (in ClCCl): 423 nm
Compound: c1ccc(-n2c3ccccc3c3cc(C4(c5ccc6c(c5)c5ccccc5n6-c5ccccc5)c5cc(-c6ccc7ccc8cccc9ccc6c7c89)ccc5-c5ccc(-c6ccc7ccc8cccc9ccc6c7c89)cc54)ccc32)cc1

emission maximum (in C1CCOC1): 371 nm
Compound: O=Cc1ccc(-c2ccc3c(c2)C(=O)c2cc(-c4ccc(C=O)cc4)ccc2-3)cc1

emission maximum (in C1COCCO1): 539 nm
Compound: O=C1NC(c2ccccc2)=C/C1=C\c1ccccc1

emission maximum (in ClCCl): 482 nm
Compound: c1ccc(N(c2ccccc2)c2ccc(-c3ccncn3)cc2)cc1

emission maximum (in ClCCl): 402 nm
Compound: COC(=O)c1c(-c2cc3ccccc3oc2=O)nn(-c2cccc(F)c2)c1C(=O)OC

emission maximum (in CO): 578 nm
Compound: CC1=CC(/C=C/c2ccc(OCCCN=[N+]=[N-])cc2)=[N+]2C1=C(c1ccccc1)c1c(C)cc(C)n1[B-]2(F)F

emission maximum (in C1CCOC1): 403 nm
emission maximum (in C1COCCO1): 412 nm
emission maximum (in CC#N): 408 nm
emission maximum (in CCCCCC): 392 nm
emission maximum (in CCO): 419 nm
emission maximum (in CN(C)C=O): 423 nm
emission maximum (in CO): 418 nm
emission maximum (in CS(C)=O): 427 nm
emission maximum (in ClC(Cl)Cl): 415 nm
emission maximum (in ClCCl): 411 nm
Compound: COc1ccc2c(c1)CCc1c-2nc(N)c(C#N)c1-c1ccc(Br)cc1

emission maximum (in CCOC(C)=O): 379 nm
emission maximum (in CS(C)=O): 440 nm
emission maximum (in ClCCl): 420 nm
Compound: Cc1cc2c3ccccc3oc2c2c1c1ccccc1n2-c1ccc(C#N)cc1

emission maximum (in C1CCCCC1): 324 nm
Compound: CCCC1(CCC)c2cc(C#N)ccc2-c2ccc(C#N)cc21

emission maximum (in O): 564 nm
Compound: CC[n+]1nc2cc3c4c(c2c2cc(F)ccc21)CCCN4CCC3

emission maximum (in ClCCl): 559 nm
Compound: c1ccc(C2=C(c3ccccc3)c3cccc4c3c(cc3nc5cc(-c6ccccc6)c(-c6ccccc6)cc5nc34)O2)cc1

emission maximum (in CCO): 674 nm
emission maximum (in CO): 674 nm
emission maximum (in CS(C)=O): 681 nm
emission maximum (in O): 669 nm
Compound: CN1/C(=C/C=C(/C=C/c2sc3ccccc3[n+]2C)c2ccc(F)cc2)Sc2ccccc21

emission maximum (in ClCCl): 588 nm
Compound: F[B-]1(F)n2c(c3c(c2-c2ccccc2)C2C=CC3CC2)C(c2ccccc2)=C2C3=C(C(c4ccccc4)=[N+]21)C1C=CC3CC1 (stereo unspecified)

emission maximum (in ClCCl): 478 nm
Compound: O=c1c2cc(C#Cc3ccccc3)ccc2nc2ccc(C#Cc3ccccc3)cn12

emission maximum (in ClC(Cl)Cl): 510 nm
Compound: CCCCCCCCc1ccc(-n2c3c4ccccc4nc(-c4ccc(C#N)cc4)c3c3c2c2c(-c4ccc(C#N)cc4)nc4ccccc4c2n3-c2ccc(CCCCCCCC)cc2)cc1

emission maximum (in ClCCl): 472 nm
Compound: N#Cc1cc(/C=C/c2ccc(N(c3ccccc3)c3ccccc3)cc2)ccc1-c1ccc(/C=C/c2ccc(N(c3ccccc3)c3ccccc3)cc2)cc1C#N

Source: the Deep4Chem optical property database
